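These data come from cells grown in 96-well plates and exposed to compound for 48 hours at five concentrations. At the TGI there is no net growth.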 Where a SMILES comes first, the peptide text is derived from it. The star is where a group is joined. Cbz = O=C(OCc1ccccc1)*; NHNH2 = NN*
Legend:
Assay in all cases: NCI anticancer screen, dose series, 48 h
A549 NSCLC = system: A549 NSCLC
SF-295 CNS = system: SF-295 CNS
COLO 205 colon = system: COLO 205 colon
MDA-MB-435 = system: MDA-MB-435
OVCAR-5 ovarian = system: OVCAR-5 ovarian
NCI-H226 lung = system: NCI-H226 lung
MOLT-4 leukemia = system: MOLT-4 leukemia
T-47D breast = system: T-47D breast
IGROV1 ovarian = system: IGROV1 ovarian
HOP-62 NSCLC = system: HOP-62 NSCLC
MALME-3M melanoma = system: MALME-3M melanoma
SR leukemia = system: SR leukemia
RPMI-8226 leukemia = system: RPMI-8226 leukemia
NCI-H460 lung = system: NCI-H460 lung
HL-60(TB) leukemia = system: HL-60(TB) leukemia
HCC-2998 colon = system: HCC-2998 colon
HS 578T breast = system: HS 578T breast

Row | Structure (SMILES) | TGI (A549 NSCLC) [µM] | TGI (SF-295 CNS) [µM] | TGI (COLO 205 colon) [µM] | TGI (MDA-MB-435) [µM] | TGI (OVCAR-5 ovarian) [µM] | TGI (NCI-H226 lung) [µM] | TGI (MOLT-4 leukemia) [µM] | TGI (T-47D breast) [µM] | TGI (IGROV1 ovarian) [µM] | TGI (HOP-62 NSCLC) [µM] | TGI (MALME-3M melanoma) [µM] | TGI (SR leukemia) [µM] | TGI (RPMI-8226 leukemia) [µM] | TGI (NCI-H460 lung) [µM] | TGI (HL-60(TB) leukemia) [µM] | TGI (HCC-2998 colon) [µM] | TGI (HS 578T breast) [µM]
1 | CCn1c(=O)c2nc(SC)sc2n(-c2ccccc2)c1=O | > 100 | > 100 | > 100 | > 100 | > 100 | > 100 | > 100 | > 100 | > 100 | > 100 | > 100 | > 100 | > 100 | > 100 | > 100 | > 100 | 
2 | NC(=Nc1cccc(Cl)c1)c1ccccc1N | > 100 | > 100 | > 100 | > 100 | > 100 | > 100 | > 100 |  | > 100 | > 100 | > 100 | > 100 | > 100 | > 100 | > 100 | > 100 | > 100
3 | CCn1c2ccccc2c2ccc(C3C(C(=O)OC)=C(C)NC(C)=C3C(=O)OC)cc21 | > 100 | > 100 | > 100 | > 100 | > 100 | > 100 | > 100 | > 100 | > 100 | > 100 | 60.1 | > 100 | 80.8 | > 100 | > 100 | > 100 | 
4 | CN(C)c1cccc2c1C(=O)C=CC21CCc2ccc(N(C)C)c3c(N(C)C)ccc1c23 (stereo not drawn) | 42.3 | 43.1 | 29 | 28.6 | 49.6 | 33 | 47 | > 100 | 31.2 | 32.8 | 24.4 | 56.5 | 58.6 | 28.7 | 27.3 |  | 66.8
5 | Cc1cccc(C)c1Nc1nc(C)c(C(=O)CC(=O)C(=O)Nc2c(C(C)C)cccc2C(C)C)s1 | > 100 | > 100 | > 100 | > 100 | > 100 | > 100 | > 100 | > 100 | > 100 | > 100 |  | > 100 | > 100 | > 100 | > 100 | > 100 | > 100
6 | CSCCCNC(=O)c1csc(-c2csc(CCNC(=O)CNC(=O)CNC(=O)OC(C)(C)C)n2)n1 | > 100 | > 100 | > 100 | > 100 | > 100 | > 100 | > 100 |  | > 100 | > 100 | > 100 | > 100 |  | > 100 | > 100 | > 100 | > 100
7 | CC(C)(C)OC(=O)Cn1ncn(NC(=O)Cc2ccccc2)c1=O | > 10 | > 10 | > 10 | > 10 | > 10 | > 10 | > 10 | > 10 | > 10 | > 10 | > 10 | > 10 |  | > 10 |  | > 10 | > 10
8 | O=C(Nc1nnc(-c2c(Cl)c(Cl)c(Cl)c(Cl)c2-c2nc3cc(C(=O)c4ccccc4)ccc3[nH]2)o1)c1ccc(Cl)cc1 | > 100 | 42.4 | 35.1 | > 100 | > 100 | > 100 | > 100 | > 100 | > 100 | 67.5 |  | > 100 | > 100 |  | > 100 |  | 
9 | Cc1ccc(O)c(C2=CC(c3cccc(Br)c3)SC(N)=N2)c1 (stereo not drawn) | 88.3 | 42.2 | 34.6 | 37.2 | 92.5 | 71.5 | 63.4 | 87.9 | 46.5 | 52 | 78.9 | 49.7 | 49.8 | 49.8 | 75.1 |  | 45
10 | CCCC1(CCC)c2cc(/C=N\O)ccc2-c2ccc(-c3ccc(C(C)(C)C)cc3)cc21 | > 100 | > 100 | > 100 |  | > 100 |  | 60.9 | > 100 | > 100 | > 100 | > 100 | 73.1 | > 100 | > 100 | 51.7 | > 100 | > 100
11 | S=C(N1CCN(c2cccc(Cl)c2)CC1)N1CCN(c2cccc(Cl)c2)CC1 | > 100 | > 100 | 68 | > 100 | > 100 | 88.4 | 64.1 | > 100 | > 100 | > 100 | 71.4 | 32.4 | > 100 |  |  | 36.1 | 66.6
12 | CCOC(=O)CCC(NC(=O)OCc1ccccc1)C(=O)NC(CCC(=O)OCC)C(=O)NN (stereo not drawn) (Cbz-Glu(OEt)-Glu(OEt)-NHNH2; configuration not given here) | > 100 |  | > 100 |  | > 100 | > 100 | > 100 |  | > 100 | > 100 | > 100 | > 100 | > 100 | > 100 | > 100 | > 100 | > 100
13 | NC(=O)c1c(NC=O)ncn1C1OCC(O)C(O)C1O (stereo not drawn) | > 100 | > 100 | > 100 | > 100 | > 100 | > 100 | > 100 | > 100 | > 100 | > 100 | > 100 | > 100 | > 100 | > 100 | > 100 |  | > 100
14 | CC(=O)C(=[N+]=[N-])C(=O)N(C)CCC#N | > 10 | > 10 |  | > 10 | > 10 | > 10 | > 10 | > 10 | > 10 | > 10 | > 10 | > 10 | > 10 | > 10 | > 10 |  | 
15 | CCC(O)c1ccc(N=Cc2ccccc2O)cc1 (stereo not drawn) | > 100 | > 100 | > 100 | > 100 | > 100 | > 100 | > 100 | > 100 | > 100 | > 100 | > 100 | > 100 | > 100 | > 100 | > 100 | > 100 | 
16 | NC1Cc2ccccc2OC1=O (stereo not drawn) | > 100 | > 100 | > 100 | > 100 | > 100 | > 100 | > 100 | > 100 | > 100 | > 100 | > 100 | > 100 | > 100 | > 100 |  | > 100 | > 100
17 | COc1ccccc1NCc1cccc2c(=O)c3ccc(Cl)cc3oc12 | > 100 | > 100 | > 100 | > 100 | > 100 | > 100 | > 100 | > 100 | > 100 | > 100 | > 100 | > 100 | > 100 |  | 64 | > 100 | 
18 | COc1ccc2c3c1OC1C34CCN(C)C(C2)C4=CC(I)C1(OC)OC (stereo not drawn) | 54.8 | > 100 | 28.7 | 15.5 | 38.4 | 59.3 | 21.2 | 48.8 | 22.2 | 20.8 | 21.9 | 10.2 | 14.2 | 28 |  | 21.9 | 79.7
19 | COC1CCC(=O)N1CN(C(C)=O)c1ccc(C)cc1 (stereo not drawn) | > 100 | > 100 | > 100 | > 100 | > 100 | > 100 | > 100 | > 100 |  | > 100 |  | > 100 | > 100 | > 100 |  | > 100 | > 100
20 | CCOC(=O)C(O)(C(=O)OCC)c1cc(C(C)(C)C)c(O)c(C(C)(C)C)c1 | > 100 | 52.5 | 90.1 | > 100 | > 100 | > 100 | > 100 | > 100 | > 100 | > 100 | > 100 | > 100 | 91.3 |  | 98.2 |  | > 100
21 | NC(Cc1ncccn1)C(=O)O (stereo not drawn) | > 100 | > 100 | > 100 | > 100 | > 100 | > 100 | > 100 | > 100 | > 100 | > 100 | > 100 | > 100 | > 100 | > 100 |  | > 100 | > 100
22 | O=[N+]([O-])/C(C(Cl)=C(Cl)Cl)=C(\N1CCCCC1)n1nnc2ccccc21 | 51.1 | 33.3 | 34.4 | > 100 | 36.9 | 42.6 | 18.3 | > 100 | 34.1 | 48.8 | 39.6 | 58.4 | 38.6 | 47.6 |  | 26.2 | 81.8
23 | C=CCOc1ccccc1C1(O)c2ccccc2C2=NCCCN21 (stereo not drawn) | > 100 | 71.6 | 78.9 | > 100 | > 100 | 76.4 | > 100 | > 100 | 44.7 | 54.1 |  | > 100 | > 100 | > 100 | 96.8 | 30.3 | > 100

Reference: PubChem BioAssay (NCI)
